From the SangsterLogP compilation

Test: method code SF-HPLC, from DOI: 10.1248/cpb.43.2238

| logP | Compound |
| --- | --- |
| 2.55 | Clc1ccsc1 |
| 3.03 | CCCOC(=O)c1ccsc1 |
| 0.84 | CNC(=O)c1cccs1 |
| 1.68 | CCCNC(=O)c1cccs1 |
| 1.65 | CCCNC(=O)c1ccsc1 |
| 1.58 | O=[N+]([O-])c1cccs1 |
| 1.18 | CCNC(=O)c1cccs1 |
| 3.01 | CCCOC(=O)c1cccs1 |
| 1.34 | N#Cc1cccs1 |
| 2.13 | COc1cccs1 |
| 1.27 | CC(=O)c1cccs1 |
| 1.26 | CC(=O)c1ccsc1 |
| 0.81 | CNC(=O)c1ccsc1 |
| 1.83 | COC(=O)c1cccs1 |
| 1.89 | c1ccsc1 |
| 1.18 | CCNC(=O)c1ccsc1 |
| 2.32 | CCOC(=O)c1ccsc1 |
